The subject of this assay is antigen-specific CTLs (CD8+ T cells) against T2 cells pulsed with CD133 HLA-A2 peptides. The assay is described as follows: IFN-γ ELISPOT assay of antigen-specific T cell response. Format: cell-based, human. The conditions noted are these: peptide-induced CTLs co-cultured with T2 cells pulsed with 10 μg/ml of peptides for 20 hours, compared with T2 control (no peptides); FIG. 3. The protocol:
To test this hypothesis, effector CD8^+ T cells were isolated and co-cultured with HLA-A2+ DC pulsed with CD133 peptides to induce antigen-specific CTLs. Antigens-specific T cell responses were evaluated by an IFN-γ ELISPOT assay.
Human monocyte-derived DC was generated using previously described methods. Briefly, monocytes were isolated from PBMC by magnetic immunoselection using EasySep human monocyte enrichment kit (Stem Cell Technologies) in accordance with the manufacturer's instructions and then cultured at […] in 20 ml of GMP CellGenix DC serum-free medium (Cat#20801-0500, Cellgenix) supplemented with 1000 unit/ml of recombinant human GM-CSF (Cat#AF-300-03, Peprotech, Inc) and recombinant human IL-4(Cat# AF-200-04, Peprotech, Inc). Cells were harvested after 3 or 6 days of culture. The DCs were washed and plated in 6-well plates at a concentration of 5×10^6 cells/well IFN-γ (1000 unit/ml) and monophosphoryl lipid A (MPLA, 20-50 μg/ml) was added into the wells to mature the DC for 24 hr or 48 hrs. Prior to some assays, DC was frozen and stored into liquid nitrogen.
In order to evaluate antigen-specific immune responses, CD8^+ T cells were isolated from fresh or frozen apheresis by positive selection using Dynabeads® CD8 Positive Isolation Kit (Life Technologies, Grand Island, N.Y.) and co-cultured with autologous mDC for four weeks. DCs were added weekly. Briefly, mDC was pulsed with synthetic peptides ([…]) for 6-8 hours at 37° C., and then treated with 20 μg/ml Mitomycin C (Sigma-Aldrich, St. Louis, Mo.) for 25 min at 37° C. and 5% CO2. […]
Antigen-specific immune responses were evaluated by the IFN-γ Elispot kit (BD Biosciences) following previously described methods. […] The colored spots, representing cytokine-producing cells, were counted under a dissecting microscope. The results were evaluated by an automated ELISPOT reader system using KS ELISPOT 4.3 software.

From US20140234350A1, “OVARIAN CANCER VACCINES AND VACCINATION METHODS” (Cedars-Sinai Medical Center, priority 2013, published 2014) come the findings set out here.

As to “FLLPALIFAV (listed as Homo sapiens) [CD133p804, CD133 HLA-A2 peptide, position 804-813]”, the “antigen-specific T cell response (IFN-γ ELISPOT)” value was “can efficiently recognize T2 pulsed with these antigens and boost the T cell immune response”. As for “ILSAFSVYV (listed as Homo sapiens) [CD133p405, CD133 HLA-A2 peptide, position 405-413]”, the entry is “can efficiently recognize T2 pulsed with these antigens and boost the T cell immune response”. As for “YLQWIEFSI (listed as Homo sapiens) [CD133p753, CD133 HLA-A2 peptide]”, the entry is “can efficiently recognize T2 pulsed with these antigens and boost the T cell immune response”.
